Series [1] concerns the target FumC (fumarate hydratase) from R. prowazekii (Rickettsia prowazekii, UniProt Q9ZCQ4). Particulars: active site; product analog; from crystallization precipitant, 1.4 M sodium malonate pH 6.0, 289 K; one malonate per protomer.
Series [2] deals with the molecule itself. The experiment in a line: crystal structure.

The values that follow come from paper PMC3169413 (Acta Crystallographica Section F: Structural Biology and …, 2011).

On to `O=C(O)CC(=O)O` [malonate], for which the “X-ray crystal structure, 2.4 A” value in series [1] is reported as “The R. prowazekii FumC structure was determined in complex with the product analog malonate”.

B1: fumarate hydratase (FumC) from Rickettsia prowazekii strain Madrid E (enzyme)
chain: MKNYRIESDSFGEIQIEEKFYWGAQTQRSLNNFKISKQKMPKILIRALAILKKCAAQVNYEFGDLEYKIATSIDKAIDRILAGEFEDNFPLVVWQTGSGTQTNMNMNEVIASIANEELTGKKGGKFPVHPNDHVNKGQSSNDSFPTAMHIATVLATKQQLIPALNNLLTYLQDKSKDWDKIIKIGRTHLQDATPLTLKQEFSGYITQIEYALERIEDALKKVYLLAQGGTAVGTGINSKIGFDIKFAQKVAEFTQQPFKTAPNKFESLAAHDALVEFSGTLNTIAVSLMKIANDIRLLGSGPRCGLGELHLPENEPGSSIMPGKVNPTQVEALTMVCTQVMGNHVTVTIAGSNGHLELNVFKPVIIYNILQSIELLSDSVNSFVTHCVKGLEPNIARINTLRDKSLMLVTVLNPHIGYDNAAKIAKEAHKYGITLKEAAKKLNFLSEEEFDKIVVPEKMIS
notes: also called fumarase; class II fumarate hydratase
With B1, the binding result in series [2] is “binds”.
